Tested on: mRNA for UGCG in the mouse preputial gland
Settings: gonadectomized male mice, medium-term treatment, effect visible at 96 hours
Method: The expression of the genes was analyzed on an Affymetrix station (microfluidic model; hybridization oven; scanner; computer) following the protocols provided by the company. Briefly, the total RNA isolated from the tissues is transcribed to cDNA. From the double-stranded cDNA, a cRNA labeled with biotin is synthesized using T7 polymerase and a precursor NTP conjugated to biotin. The cRNAs are then fragmented to small sized fragments. All the molecular biology steps are checked using the Agilent “Lab on a chip” system in order to confirm the good efficiencies of the enzymatic reactions. The Affymetrix chip is hybridized with the biotinylated cRNA, rinsed and then fluorescence labeled using a fluorophore conjugated to streptavidin. After washings, the chip is scanned and the results are calculated using the MAS5 software provided by Affymetrix. An expression value is obtained for each gene as well as the indication of the significance of the value obtained.
B. Male mice were gonadectomized and treated with the vehicle or DHT. The preputial glands were removed for a period ranging up to 4 days (androgenic treatment alone—observation of a short-term kinetics). The RNA was isolated and the expression of the genes was analyzed by the Affymetrix technique.

C[C@]12CCC(=O)C[C@@H]1CC[C@@H]1[C@@H]2CC[C@]2(C)[C@@H](O)CC[C@@H]12 [DHT, Dihydrotestosterone]
mRNA for UGCG in the mouse preputial gland: reduced
